According to patent US20230123334A1, “AMINO LIPID COMPOUND, PREPARATION METHOD THEREFOR, AND APPLICATION THEREOF” (SHENZHEN SHENXIN BIOTECHNOLOGY CO., LTD., priority 2020, published 2023):

Key:
[1] = test system: HEK293 cells; test: Preliminary screening as DNA vectors, GFP transfection of HEK293 cells; assay type: cell-based; settings: HEK293 cells; lipid/DOPE liposome with 75 ng plasmid DNA (psin-EGFP-IRES-Puro); number of cells expressing GFP divided by total number of nuclei (Hoechst)
Procedure, shortened: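 First, amino lipid and DOPE were vortexed in sodium acetate buffer (pH 5.6) to form liposomes. Next, these were held with 75 ng EGFP plasmid at room temperature for 30 min. Finally, HEK293 cells were added, cultured at 37° C., Hoechst-stained, and GFP+/total nuclei scored by imaging.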

[2] = test system: HEK293 cells; test: Preliminary screening as mRNA vectors, EGFP mRNA transfection of HEK293 cells; assay type: cell-based; settings: HEK293 cells, 96-well plates, EGFP mRNA 50 ng per well; percentage of GFP fluorescent cells relative to total number of cells (Hoechst)
Procedure, shortened: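 Screening format: EGFP mRNA transfection (50 ng/well) into HEK293 in 10% FBS-supplemented DMEM. Percent green fluorescent cells, normalised to Hoechst nuclear count, gave the value; Lipofectamine2000 was the reference transfectant.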

Row | SMILES | Absolute DNA transfection efficiency in HEK293 cells [1] [%] | Absolute mRNA transfection efficiency in HEK293 cells [2] [%]
1 | CCCCCCCCCCCCCCCCNc1nc(NCC2CCN(C)CC2)nc(N(CCCCCCCCCCCC)CCCCCCCCCCCC)n1 [N16^2N12D10] | 1.5 | 0.0
2 | CCCCCCCNc1nc(NCCCCCCC)nc(NCCCN2CCN(C)CC2)n1 [Compound N7N7D9] | 0.0 | 0.0
3 | CCCCCCCCCCCCCCCCSc1nc(NCCCN2CCN(C)CC2)nc(SCCCCCCCCCCCC)n1 [Compound S12S16D9] | 0.5 | 0.0
4 | CCCCCCCCCCCCCCCCCCNc1nc(NCCCCCCCCCCCCCCCC)nc(NCCCN(C)C)n1 [Compound N16N18D6] | 0.0 | 4.4
5 | CCCCCCCCCCCCCCCCCCNc1nc(NCCCCCCCCCCC)nc(NCCN2CCN(C)CC2)n1 [Compound N11N18D5] | 1.4 | 0.0
6 | CCCCCCCCCCCCCCCSc1nc(NCCN2CCOCC2)nc(SCCCCCCCCCCCCCCC)n1 [Compound S15S15D2] | 0.0 | 0.0
7 | CCCCCCCCCCCCCCCCCCSc1nc(NCCN2CCN(C)CC2)nc(SCCCCCCCCCC)n1 [Compound S10S18D5] | 3.7 | 3.5
8 | CCCCCCCNc1nc(NCCCCCC)nc(NCCN(C)C)n1 [Compound N6N7D1] | 0.0 | 0.1
9 | CCCCCCCCCCCCCCCCCCNc1nc(NCCCCCCCCCCCCCCC)nc(NCCN(CC)CC)n1 [Compound N15N18D7] | 3.2 | 8.3
10 | CCCCCCCCCCCCN(CCCCCCCCCCCC)c1nc(NCCCCCC)nc(NCCN2CCCC2)n1 [N6^2N12D3] | 0.4 | 0.1
11 | CCCCCCCCCCCCCCCCCCNc1nc(NCCCCCCCCC)nc(NCCN2CCN(C)CC2)n1 [Compound N9N18D5] | 0.0 | 0.9
12 | CCCCCCCCCCCCCNc1nc(NCCCCCCCCCCC)nc(NCCN(CC)CC)n1 [Compound N11N13D7] | 0.5 | 0.9
13 | CCCCCCCCCCCCCCCCNc1nc(NCCCCCCCCCCCCCCC)nc(NCCN2CCCC2)n1 [Compound N15N16D3] | 2.5 | 6.1
14 | CCCCCCCCCCCCCCCCCCNc1nc(NCCCCCCCCCCCCCCC)nc(NCCCN2CCOCC2)n1 [Compound N15N18D8] | 0.9 | 0.0
15 | CCCCCCCCCCCCCCCSc1nc(NCCCN(C)C)nc(SCCCCCCCCCCCCCC)n1 [Compound S14S15D6] | 0.2 | 0.1
16 | CCCCCCCNc1nc(NCCCCCCC)nc(NCCN(CC)CC)n1 [Compound N7N7D7] | 0.0 | 0.0
17 | CCCCCCCCCCCCCCCCCCSc1nc(NCC2CCN(C)CC2)nc(SCCCCCCCCC)n1 [Compound S9S18D10] | 7.0 | 43.6
18 | CCCCCCCCCNc1nc(NCCCCCC)nc(NCCN2CCCC2)n1 [Compound N6N9D3] | 0.3 | 0.4
19 | CCCCCCCCCNc1nc(NCCCCCCCC)nc(NCCCN2CCN(C)CC2)n1 [Compound N8N9D9] | 0.0 | 0.0
20 | CCCCCCCNc1nc(NCCCCCCC)nc(NCCN2CCN(C)CC2)n1 [Compound N7N7D5] | 0.0 | 0.5
21 | CCCCCCCCCCCCCCCNc1nc(NCCCCCCCCCCCCCCC)nc(NCCN2CCOCC2)n1 [Compound N15N15D2] | 0.0 | 0.0
22 | CCCCCCCCCCCCCNc1nc(NCCCCCCCC)nc(NCCN2CCOCC2)n1 [Compound N8N13D2] | 0.0 | 0.1
23 | CCCCCCCCCCCNc1nc(NCCCCCCCC)nc(NCCN2CCN(C)CC2)n1 [Compound N8N11D5] | 0.2 | 0.4
24 | CCCCCCCCCCCSc1nc(NCCCN2CCN(C)CC2)nc(SCCCCCCCCCCC)n1 [Compound S11S11D9] | 4.3 | 8.0

Row | SMILES | Absolute DNA transfection efficiency in HEK293 cells [1] [%] | Absolute mRNA transfection efficiency in HEK293 cells [2] [%]
25 | CCCCCCCCCCCCCCCNc1nc(NCCCCCCCCCCC)nc(NCC2CCN(C)CC2)n1 [Compound N11N15D10] | 0.4 | 1.6
26 | CCCCCCCCCCCCNc1nc(NCCCCCCCCC)nc(NCCCN2CCN(C)CC2)n1 [Compound N9N12D9] | 0.0 | 0.1
27 | CCCCCCCCCCSc1nc(NCC2CCN(C)CC2)nc(SCCCCCCCCCC)n1 [Compound S10S10D10] | 18.8 | 87.1
28 | CCCCCCCCCCCCNc1nc(NCCCCCCCCC)nc(NCC2CCN(C)CC2)n1 [Compound N9N12D10] | 0.0 | 0.4
29 | CCCCCCCCCCCCCCCCCCSc1nc(NCCCN2CCOCC2)nc(SCCCCCCCCCC)n1 [Compound S10S18D8] | 13.7 | 8.0
30 | CCCCCCCCCCCCCCCCCCSc1nc(NCCCN2CCN(C)CC2)nc(SCCCCCCCCCCC)n1 [Compound S11S18D9] | 0.9 | 0.3
31 | CCCCCCCCCCCCCCSc1nc(NCCN(CC)CC)nc(SCCCCCCCCCCCC)n1 [Compound S12S14D7] | 3.3 | 0.9
32 | CCCCCCCCCCCCCCCNc1nc(NCCCCCCCCCCCCC)nc(NCCN2CCCCC2)n1 [Compound N13N15D4] | 0.0 | 0.0
33 | CCCCCCCCCCCCSc1nc(NCC2CCN(C)CC2)nc(SCCCCCCCCCCC)n1 [Compound S11S12D10] | 4.8 | 10.5
34 | CCCCCCCCCCCNc1nc(NCCCCCCCCC)nc(NCCN(CC)CC)n1 [Compound N9N11D7] | 0.0 | 0.8
35 | CCCCCCCCCCCCCCCCSc1nc(NCCN2CCN(C)CC2)nc(SCCCCCCCC)n1 [Compound S8S16D5] | 3.7 | 20.5
36 | CCCCCCCCCCCCN(CCCCCCCCCCCC)c1nc(NCC2CCN(C)CC2)nc(N(CCCCCCCCCCCC)CCCCCCCCCCCC)n1 [2N12^2N12D10] | 1.8 | 3.3
37 | CCCCCCCCCCCCN(CCCCCCCCCCCC)c1nc(NCCCCCCCCC)nc(NCCCN2CCN(C)CC2)n1 [N9^2N12D9] | 0.0 | 3.9
38 | CCCCCCCCCCCCCCCSc1nc(NCCN(C)C)nc(SCCCCCCCCCCCCCCC)n1 [Compound S15S15D1] | 1.0 | 0.5
39 | CCCCCCCCCCCCCCCCNc1nc(NCCN2CCCC2)nc(N(CCCCCCCCCCCC)CCCCCCCCCCCC)n1 [N16^2N12D3] | 2.0 | 4.0
40 | CCCCCCCCCCCCCCCNc1nc(NCCCCCCCC)nc(NCCCN2CCOCC2)n1 [Compound N8N15D8] | 1.1 | 0.3
41 | CCCCCCCCCNc1nc(NCCCCCCCC)nc(NCCCN(C)C)n1 [Compound N8N9D6] | 0.4 | 0.0
42 | CCCCCCCCCCCCCCCCCCSc1nc(NCCN2CCN(C)CC2)nc(SCCCCCCCCCCCCCC)n1 [Compound S14S18D5] | 0.2 | 1.0
43 | CCCCCCCCCCCCCCCCCCNc1nc(NCCCCCCC)nc(NCC2CCN(C)CC2)n1 [Compound N7N18D10] | 15.6 | 73.8
44 | CCCCCCCCCCCCCCCCCCNc1nc(NCCCCCC)nc(NCCN2CCN(C)CC2)n1 [Compound N6N18D5] | 0.6 | 0.0
45 | CCCCCCCCCCCCCCCCSc1nc(NCCN2CCOCC2)nc(SCCCCCCCCCCCC)n1 [Compound S12S16D2] | 0.0 | 0.0
46 | CCCCCCCCCCCCCCCCCCNc1nc(NCCCCCCCCCCCCCCCCCC)nc(NCCCN(C)C)n1 [Compound N18N18D6] | 0.3 | 4.4
47 | CCCCCCCCCCCCCNc1nc(NCCCCCCCC)nc(NCCCN(C)C)n1 [Compound N8N13D6] | 0.0 | 0.0
